In ChEMBL document CHEMBL1127206, “Preparation and in vitro biological evaluation of the enantiomers of the diydropyridine BMY 20014, a combination calcium and 1-adrenoreceptor antagonist” (Bioorg Med Chem Lett, 1993) one finds Kb and Ki data, which are given here for seven compounds.

Bounds are passed on as bounds.

The species named for one test is Rattus norvegicus. Nature of the test: Inhibition constant by its ability to inhibit (act through Ca++ ion channel) contractions induced by K+ depolarization in rat dorsal aorta. It counts as functional.
The target of test [1] is T1, Adrenergic receptor alpha-1 (Rattus norvegicus, UniProt P15823+P23944+P43140).
T1 sequence (P15823 whole entry): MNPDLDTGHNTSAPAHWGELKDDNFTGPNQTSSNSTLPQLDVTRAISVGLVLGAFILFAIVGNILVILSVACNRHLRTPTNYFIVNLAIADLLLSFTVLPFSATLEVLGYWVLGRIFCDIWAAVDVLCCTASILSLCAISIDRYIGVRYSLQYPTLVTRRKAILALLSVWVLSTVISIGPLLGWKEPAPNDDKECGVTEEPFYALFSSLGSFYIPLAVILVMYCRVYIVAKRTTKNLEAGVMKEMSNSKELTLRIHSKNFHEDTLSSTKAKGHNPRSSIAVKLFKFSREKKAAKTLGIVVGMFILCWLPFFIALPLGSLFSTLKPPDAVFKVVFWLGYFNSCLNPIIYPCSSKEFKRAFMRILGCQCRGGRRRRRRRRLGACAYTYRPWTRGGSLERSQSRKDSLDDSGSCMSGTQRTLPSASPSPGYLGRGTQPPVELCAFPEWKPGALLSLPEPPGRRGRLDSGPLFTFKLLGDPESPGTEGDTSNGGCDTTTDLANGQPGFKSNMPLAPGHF
T1 sequence (P23944 whole entry): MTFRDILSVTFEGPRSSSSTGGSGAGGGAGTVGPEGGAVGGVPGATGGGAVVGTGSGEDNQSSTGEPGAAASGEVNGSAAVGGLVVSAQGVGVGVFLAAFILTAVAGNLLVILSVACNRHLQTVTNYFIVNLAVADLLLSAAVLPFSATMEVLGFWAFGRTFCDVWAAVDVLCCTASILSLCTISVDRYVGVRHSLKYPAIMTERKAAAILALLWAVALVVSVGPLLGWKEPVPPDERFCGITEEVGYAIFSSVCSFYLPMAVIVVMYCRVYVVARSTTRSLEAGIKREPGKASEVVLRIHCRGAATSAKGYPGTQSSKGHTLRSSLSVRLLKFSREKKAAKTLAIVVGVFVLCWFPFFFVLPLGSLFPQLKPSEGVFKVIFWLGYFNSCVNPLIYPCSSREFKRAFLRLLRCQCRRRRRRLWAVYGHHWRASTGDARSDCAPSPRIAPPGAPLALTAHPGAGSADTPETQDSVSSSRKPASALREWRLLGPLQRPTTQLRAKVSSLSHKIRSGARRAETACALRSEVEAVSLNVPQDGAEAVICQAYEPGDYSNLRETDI
T1 sequence (P43140 whole entry): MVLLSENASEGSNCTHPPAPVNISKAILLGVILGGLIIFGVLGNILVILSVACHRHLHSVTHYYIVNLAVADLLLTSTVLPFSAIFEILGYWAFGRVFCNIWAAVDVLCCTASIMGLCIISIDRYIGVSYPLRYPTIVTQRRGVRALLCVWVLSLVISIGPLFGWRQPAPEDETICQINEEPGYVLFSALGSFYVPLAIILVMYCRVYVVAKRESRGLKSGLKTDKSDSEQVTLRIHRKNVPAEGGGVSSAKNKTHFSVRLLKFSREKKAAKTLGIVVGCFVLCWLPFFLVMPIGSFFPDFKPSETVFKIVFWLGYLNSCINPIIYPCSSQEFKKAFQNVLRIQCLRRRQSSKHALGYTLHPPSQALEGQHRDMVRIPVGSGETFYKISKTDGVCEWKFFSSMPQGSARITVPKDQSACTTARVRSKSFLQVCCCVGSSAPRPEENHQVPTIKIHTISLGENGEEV
Nature of the test: Alpha-1 adrenergic receptor binding affinity was evaluated by its ability to displace [3H]prazosin in rat brain synaptosomes. The format is subcellular.

A short description of test [2]: [Ca2+] channel binding affinity was evaluated by its ability to displace [3H]-PN-200-110 in rat brain synaptosomes. The format is subcellular.
A further test is filed under the species Oryctolagus cuniculus. Nature of the test: Inhibition constant by its ability to inhibit contractions induced by phenylephrine in rabbit dorsal aorta. The format is functional.

As for `COC(=O)C1=C(C)NC(C)=C(C(=O)NCCCN2CCN(c3ccccc3OC)CC2)[C@H]1c1cccc([N+](=O)[O-])c1`, the Kb in the test filed under Rattus norvegicus came to 0.0029 µM; in the test listed under Oryctolagus cuniculus, 0.0083 µM. For the same compound, the Ki (commonly the dissociation constant of the complex between target and ligand, obtained from inhibition or displacement) in test [1] came to 0.0046 µM; in test [2] it was 0.016 µM.

In the case of `CO/C(O)=C1\C(C)=NC(C)=C(C(=O)NCCCN2CCN(c3ccccc3OC)CC2)C1c1cccc([N+](=O)[O-])c1` (centres undefined), the Kb in the test listed under Rattus norvegicus was determined as 0.0063 µM. Besides, the Ki in test [1] amounted to 0.013 µM; in test [2] it was 0.035 µM.

As to `COC(=O)C1=C(C)NC(C)=C(C(=O)NCCCN2CCN(c3ccccc3OC)CC2)[C@@H]1c1cccc([N+](=O)[O-])c1`, the results for the Kb in the test listed under Rattus norvegicus and in the test listed under Oryctolagus cuniculus were 0.107 µM and 0.05 µM, respectively. In addition, the Ki in test [1] came to 0.036 µM; in test [2], 0.338 µM.

For `COC(=O)C1=C(C)NC(C)=C(C(=O)OC)C1c1ccccc1[N+](=O)[O-]` [NIFEDIPINE], the Kb in the test filed under Rattus norvegicus is 0.0005 µM; in the test filed under Oryctolagus cuniculus, more than 1 µM. Moreover, the Ki in test [1] is more than 1 µM; in test [2], 0.00053 µM.

In the case of `CO/C(O)=C1\C(C)=NC(C)=C(C(=O)n2ccnc2)[C@@H]1c1cccc([N+](=O)[O-])c1`, in the test listed under Rattus norvegicus, the Kb turned out to be 0.031 µM. For the same compound, the values for the Ki in test [1] and in test [2] were more than 1 µM and 0.181 µM, respectively.

For `COc1cc2nc(N3CCN(C(=O)c4ccco4)CC3)nc(N)c2cc1OC` [PRAZOSIN], the Kb was more than 1 µM in the test filed under Rattus norvegicus and 0.0016 µM in the test listed under Oryctolagus cuniculus. In addition, the Ki in test [2] is more than 1 µM.

Regarding `CO/C(O)=C1\C(C)=NC(C)=C(C(=O)n2ccnc2)[C@H]1c1cccc([N+](=O)[O-])c1`, in the test filed under Rattus norvegicus, the Kb stood at 0.0036 µM. Further, the Ki in test [1] is more than 1 µM; in test [2] it was 0.0078 µM.
